Type in all cases: cell-based, human
Assay [1] has as its system ERK1/2. The assay can be described thus: Western blotting of phosphorylated ERK1/2 in LPS-stimulated monocytes. The note with it: 300 μM, 0.1 μg/ml LPS for 1 h. As for the experimental part: (§1) Monocytes from healthy donors were incubated at 37° C. for 20 min without or with 300 μM GroPIns or GroPIns4P, and for an additional 1 h in the absence and presence of 0.1 μg/ml LPS from E. coli. Resentative Western blots are shown, as resolved using 10% SDS-PAGE, showing phosphorylated (p-) and total levels of p38 and ERK1/2. All of the blots were representative of at least three independent experiments.
(§2) Protein extracts were analysed by Western blotting by the following procedures. The nitrocellulose filters containing the proteins of interest were incubated in the blocking solution for Western blotting plus 3% bovine serum albumin (BSA) or 5% milk powder (Fluka, Switzerland) for 1 h at room temperature, and then with the primary antibody diluted to its working concentration (see Table 2) in the blocking solution for Western blotting (plus BSA or milk powder). After a 2-4 h incubation at room temperature, or an overnight (O/N) incubation at 4° C., the antibody was removed and the strips were washed twice in Tween®/Tris-buffered salt solution (TTBS), for 15 min each. […] After washing the strips were incubated with the enhanced luminescence (ECL) reagents (Amersham Pharmacia Biotech, NJ, USA), according to the manufacturer instructions, and protein signals were detect by autoradiography using Kodak film.
(In general: In western blotting, separated proteins are transferred to a membrane and probed.)

The test system of assay [2] is p38. The assay is described as follows: Western blotting of phosphorylated p38 in LPS-stimulated monocytes. The settings on record: 300 μM, 0.1 μg/ml LPS for 1 h. As for the experimental part: as §1, §2
In assay [3] the test system is LPS-stimulated nuclear translocation of NF-κB. The assay can be described thus: Electromobility shift assay of nuclear NF-κB in LPS-stimulated monocytes. The note with it: 50 μM, 0.1 μg/ml LPS for 1 h. As for the experimental part:
FIG. 7—Glycerophosphoinositols inhibit LPS-stimulated nuclear translocation of NF-κB. Human monocytes purified from the peripheral blood of healthy donors were incubated at 37° C. for 20 min without (−) or with (+) two different concentrations (300 μM and 50 μM) of GroPIns or GroPIns4P, and then for further 1 h in the absence (−) and presence (+) of 0.1 μg/ml LPS from E. coli. At the end of the incubation, the cells were lysed and the nuclear extracts were incubated with radiolabelled oligonucleotide probes that contained the NF-κB binding site. Protein-DNA complexes were separated using 6% non-denaturating acrylamide gels and visualised by autoradiography. The results shown are representative of 4 different experiments performed with cells from different donors.
Cells were harvested by centrifugation at 300×g for 5 min and lysed in ice-cold cell lysis buffer using an Ultraturrax homogeniser (Janke & Kunke, Germany, 4 strokes of 20 s each, at medium speed). The cell nuclei were pelleted by centrifugation (800×g, 5 min, at 4° C.) and recovered. […] After centrifugation (4000×g, for 10 min, at 4° C.), the supernatant was recovered and the protein concentrations in the nuclear extracts were determined using a commercially available protein assay kit (Bio-Rad Laboratories, UK). […]

In assay [4] the test system is LPS-induced tissue-factor gene expression. The assay can be described thus: Real-time RT-PCR of tissue factor mRNA in LPS-stimulated monocytes. The settings on record: 300 μM, 0.1 μg/ml LPS for 24 h (chronic). As for the experimental part:
FIG. 3—The glycerophosphoinositols inhibit LPS-induced tissue-factor gene expression. Freshly isolated human monocytes were incubated at 37° C. for 20 min without or with 300 μM GroPIns or GroPIns4P, and for a further 1.5 h or 24 h in the absence and presence of 0.1 μg/ml LPS. At each time point, the total RNA was extracted from cells by the thiocyanate/caesium chloride method and converted to cDNA. Real-time PCR measurements of tissue factor were performed using validated primers. GAPDH served as the house-keeping gene. Each sample was measured in triplicate and the data were calculated with the delta-delta method (2-DDCT) for comparing relative expression data. Monocytes incubated alone for different times were considered the control sample. Measurements of mRNA levels were expressed as fold-increase over control, and are means (±SD) of triplicates from one experiment that is representative of 4 experiments performed with cells from different donors (*p=0.016; **p=0.0052). […]
One μg total RNA (extracted through thiocyanate/caesium chloride method) was converted to cDNA using Moloney murine leukaemia virus reverse transcriptase (Applied Biosystems, Italy). […] Each sample was measured in triplicate and the data were analysed with the SDS 2.0 software (Applied Biosystems, Italy) by the delta-delta method (2-DDCT) for comparing relative expression results. […]
On the technique in general: Real-time PCR tracks product formation cycle by cycle.

In the case of `O=P(O)(OCC(O)CO)OC1C(O)C(O)C(O)C(O)C1O` (centres unmarked) [GroPIns, glycerophosphoinositol], the “phosphorylation level of ERK1/2” value in assay [1] is listed as “did not affect the phosphorylation levels”. The “phosphorylation level of p38” value in assay [2] is “did not affect the phosphorylation levels”. In addition, the “reduction of NF-κB nuclear translocation” value in assay [3] is given as “not at 50 μM”. Further, the “inhibition of LPS-induced tissue factor mRNA levels” value in assay [4] is about 60%.
On to `O=P(O)(O)OC1[C@@H](O)[C@H](O)C(OP(=O)(O)OCC(O)CO)[C@@H](O)[C@H]1O` (some centres unmarked) [GroPIns4P, glycerophosphoinositol 4-phosphate], for which the “phosphorylation level of ERK1/2” value in assay [1] was “did not affect the phosphorylation levels”. Besides, the “phosphorylation level of p38” value in assay [2] was “did not affect the phosphorylation levels”. For the same compound, the “reduction of NF-κB nuclear translocation” value in assay [3] was “not at 50 μM”. In addition, the “inhibition of LPS-induced tissue factor mRNA levels” value in assay [4] is “completely ineffective”.
